Source: article PMC4055595, “Pharmacokinetic Compatibility of Ginsenosides and Schisandra Lignans in Shengmai-san: From the Perspective of P-Glycoprotein” (PLoS ONE, 2014)
Read-outs that look alike come from different tables or passages of the source.

How the values were obtained:
Caco-2 cells = test: Uptake of digoxin and ginsenosides in Caco-2 cells; assay type: in vitro ADME, human; conditions: for Effect of verapamil on uptake: 10 µM verapamil; for Effect of SLE on intracellular concentration: SLE 2.0 and 10.0 µg/mL, P<0.01
Description: (§1) Caco-2 cells were purchased from American Type Culture Collection (Manassas, VA), and were routinely cultured in Dulbecco's modified Eagle's medium supplemented with 10% fetal bovine serum, 1% nonessential amino acids, 1 mM sodium pyruvate, and 100 U/mL penicillin and streptomycin (Invitrogen, Carlsbad, CA). The cells were grown in an atmosphere of 5% CO2 at 37°C, and cell medium was changed every other day. Cells were seeded at a density of 4×10^4 cells per well in 24-well microporous polycarbonate insert filter plates (0.4-µm pore size) (Corning Costar plates; Corning Life Sciences, Lowell, MA) and grown for 15 days in Caco-2 growth medium. The medium was replaced every 3 to 4 days. Before running the assay, the culture medium was replaced by HBSS buffer supplemented with 10 mM Hepes and 20 mM glucose.
Caco-2 cells were incubated with SLE (2.0 and 10.0 µg/mL) or verapamil (10 µM) for 1.0 h. Then the cells were washed with Hank's to discard SLE or verapamil before the addition of GE (100 µg/mL). The accumulation of ginsenosides lasted for 2 h, and the intracellular concentrations of ginsenosides were measured by LC/MS. All experiments were conducted in triplicate.

[1] = Transport of digoxin and ginsenosides across Caco-2 cell monolayer (efflux ratio); assay type: in vitro ADME, human; conditions: human
Description: as §1
Caco-2 cells with a density of 1.2×10^5 cells/insert were seeded on a permeable polycarbonate insert (Millicell cell culture inserts, 0.4 µm pore size, 12 mm diameter; Millipore Corporation) in 24-well tissue culture plates and were used for the experiment 18 to 21 days after seeding. [^14C]Mannitol permeability and transepithelial electrical resistance measurements (Millicell-ERS epithelial volt-ohm meter; Millipore Corporation) were used to evaluate the integrity of Caco-2 cell monolayer. The monolayer used in transport studies had transepithelial electrical resistance values exceeding 600 Ω·cm^2, and the leakage of mannitol was less than 0.3% of the dose/h. Before transport initiation studies, the cell monolayer was first washed with warm HBSS (pH 7.4) twice. HBSS containing SLE (2.0 and 10.0 µg/mL) or 1% ethanol (control) was then loaded into both apical and basolateral chambers. After incubation at 37°C for 1.5 h, 100 µg/mL of GE was added to either the apical or basolateral side to evaluate the transport in absorptive and secretory directions, and the cell monolayer was incubated for another 2 h. 10 µM verapamil was used as a positive control inhibitor. At the designated time point, samples were taken from the receiving chamber for analysis. Ginsenosides were determined by LC-MS. All experiments were conducted in triplicate.
For the transport assay, the apparent permeability (P app, cm/s) in each direction (A→B and B→A) was calculated as follows, where A is the surface area of the membrane inserts (0.0804 cm^2), C 0 is the initial concentration of the compound applied in the donor compartment (2 µM), and △Q is the amount (micromoles) of compound transported over time △t (5 h = 18,000 s): [drawing 1]
The efflux ratio (ER) was a dimensionless number calculated as the ratio of the apparent permeability in the B→A direction divided by the apparent permeability in the A→B direction. [drawing 2]

[2] = Rat plasma pharmacokinetics after single-dose vehicle/SLE and digoxin or GE; assay type: in vivo, Sprague-Dawley rats; conditions: for AUC(0-inf): read-out: AUCINF_obs; for MRT inf: read-out: MRTINF_obs; for Effect of SLE treatment on Cmax / Increase of AUC (AUC0-∞) by coadministration of SLE: single-dose SLE 500 mg/kg vs vehicle, GE ig
Description: This study was carried out in strict accordance with the recommendations in the Guide for the Care and Use of Laboratory Animals of the National Institutes of Health. The protocol was approved by the Committee on the Ethics of Animal Experiments of the China Pharmaceutical University. All surgery was performed under sodium pentobarbital anesthesia, and all efforts were made to minimize suffering. Female healthy Sprague-Dawley rats (200±20 g) were purchased from the Laboratory Animal Center of Peking University Health Science Center (Beijing, PR China) and kept in an environmentally controlled breeding room for at least 3 days before experimentation. The rats were fed with standard laboratory food and water and fasted overnight but with free access to water before the test. To evaluate the effect of single treatment of SLE on the pharmacokinetics of ginsenosides, 24 rats were divided into four groups (group I ∼ group IV) averagely. […] In group II (control group): the rats received a single dose of vehicle (0.5% CMC-Na), and digoxin (0.5 mg/kg) was also given to the rats by intragastric administration. […] In group IV (control group): the rats received a single dose of vehicle (0.5% CMC-Na), and GE (120 mg/kg) was also given to the rats by gavage. […] Plasma was obtained by centrifugation at 5000 g for 10 min and stored at −20°C before analysis. The plasma / cell samples were extracted using a liquid–liquid extraction technique. To each tube containing 100 µL plasma, 10 µL internal standard (digoxin, 1.0 µg/mL) and 1.0 mL of n-butanol were added. The mixture was then vortex-extracted for 2 min, and centrifuged for 10 min at 10,000 g. […] The plasma concentration-time curves of ginsenosides in rats were obtained by plotting the mean plasma concentrations versus time. Pharmacokinetic parameters were calculated using the WinNonlin 6.3 program (Pharsight Inc., Mountain View, CA). The elimination half-life (t 1/2) value was calculated as 0.693/β, where β is the elimination rate constant calculated from the terminal linear portion of the log plasma concentration-time curve. The total areas under the plasma concentration- time curve from time 0 to the last quantifiable time point (AUC0-t) and from time 0 to infinity (AUC0-∞) were calculated using the log trapezoidal rule. [drawing 3] The maximum plasma concentrations (C max) for ginsenosides were obtained by visual inspection of the plasma concentration-time curve, whereas the initial drug concentration (the extrapolated concentration at zero time) of the drug after intravenous injection was calculated by back-extrapolation of the plasma concentration-time curve to the y-axis.

[3] = pH 7.4, Caco-2 cell monolayer, absence of inhibitor, GE 100 µg/mL, read-out: Efflux ratio
[4] = female, Sprague-Dawley, rat, plasma, po, rats, control: single vehicle (0.5% sodium CMC), 2 h later digoxin 0.5 mg/kg or GE 120 mg/kg ig, read-out: t1/2 (converted)
[5] = female, Sprague-Dawley, rat, plasma, po, rats, control: single vehicle, 2 h later digoxin 0.5 mg/kg or GE 120 mg/kg ig
[6] = female, Sprague-Dawley, rat, plasma, po, rats, control: single vehicle, 2 h later digoxin 0.5 mg/kg or GE 120 mg/kg ig, read-out: Tmax
[7] = female, Sprague-Dawley, rat, plasma, po, rats, single SLE 500 mg/kg ig, 2 h later digoxin 0.5 mg/kg or GE 120 mg/kg ig
[8] = female, Sprague-Dawley, rat, plasma, po, rats, single SLE 500 mg/kg ig, 2 h later digoxin 0.5 mg/kg or GE 120 mg/kg ig, read-out: Tmax
[9] = female, Sprague-Dawley, rat, plasma, po, rats, single SLE 500 mg/kg ig, 2 h later digoxin 0.5 mg/kg or GE 120 mg/kg ig, read-out: t1/2 (converted)
[10] = rats, control: single vehicle, 2 h later digoxin 0.5 mg/kg or GE 120 mg/kg ig
[11] = rats, single SLE 500 mg/kg ig, 2 h later digoxin 0.5 mg/kg or GE 120 mg/kg ig
[12] = female, Sprague-Dawley, rat, in vivo, po

Effect of verapamil on uptake (Caco-2 cells)	efflux ratio at 2 h, 100 µg/mL [1, 3]	half-life [2, 4]	AUC [2, 5]	Cmax [2, 5]	AUC(0-inf) [2, 5]	MRT inf [2, 5]	Tmax [2, 6]	AUC [2, 7]	Cmax [2, 7]	AUC(0-inf) [2, 7]	MRT inf [2, 7]	Tmax [2, 8]	half-life [2, 9]	Cl_F_obs [2, 10]	Cl_F_obs [2, 11]	Effect of SLE on intracellular concentration (Caco-2 cells)	Effect of SLE treatment on Cmax ([2]; rats)	Increase of AUC (AUC0-∞) by coadministration of SLE ([2]; rats)	SMILES	also measured
significantly enhanced	3.23	3.08 ± 1.23 h	61.8 ± 13.4 ng·h/mL	15 ± 5.07 ng/mL	67.5 ± 13.4 ng·h/mL	5.15 ± 1.09 h	1.28 ± 0.36 h	84.4 ± 7.25 ng·h/mL	17.5 ± 2.26 ng/mL	91 ± 8.39 ng·h/mL	5.06 ± 0.42 h	1.58 ± 0.38 h	2.98 ± 0.36 h	7.66 ± 1.53 L/h	5.53 ± 0.48 L/h	–	–	–	C[C@H]1O[C@@H](O[C@H]2[C@@H](O)C[C@H](O[C@H]3[C@@H](O)C[C@H](O[C@H]4CC[C@@]5(C)[C@H](CC[C@@H]6[C@@H]5C[C@@H](O)[C@]5(C)[C@@H](C7=CC(=O)OC7)CC[C@]65O)C4)O[C@@H]3C)O[C@@H]2C)C[C@H](O)[C@@H]1O [Digoxin, digoxin, reference compound]	–
significantly enhanced	3.77	13.3 ± 2.43 h	14300 ± 2380 ng·h/mL	491 ± 61.4 ng/mL	14400 ± 2470 ng·h/mL	23.1 ± 4.31 h	7.5 ± 1 h	18500 ± 5780 ng·h/mL	651 ± 127 ng/mL	18500 ± 5730 ng·h/mL	23.5 ± 2.68 h	11 ± 2 h	11.3 ± 2.74 h	0.007 ± 0.001 L/h	0.006 ± 0.002 L/h	concentration dependently increase	significantly enhanced	1.29 fold	CC(C)=CCC[C@](C)(O[C@@H]1O[C@H](CO[C@@H]2O[C@H](CO)[C@@H](O)[C@H](O)[C@H]2O)[C@@H](O)[C@H](O)[C@H]1O)[C@H]1CC[C@]2(C)[C@@H]1[C@H](O)C[C@@H]1[C@@]3(C)CC[C@H](O[C@@H]4O[C@H](CO)[C@@H](O)[C@H](O)[C@H]4O[C@@H]4O[C@H](CO)[C@@H](O)[C@H](O)[C@H]4O)C(C)(C)[C@@H]3CC[C@]12C [Rb1, ginsenoside Rb1]	–
significantly enhanced	–	19.4 ± 2.87 h	10200 ± 1710 ng·h/mL	330 ± 70.9 ng/mL	10600 ± 1730 ng·h/mL	27.9 ± 4.2 h	7 ± 2 h	22300 ± 5270 ng·h/mL	541 ± 45 ng/mL	23200 ± 5570 ng·h/mL	25.2 ± 3.63 h	9.5 ± 3 h	19 ± 3.84 h	0.012 ± 0.003 L/h	0.004 ± 0.001 L/h	concentration dependently increase	significantly enhanced	2.18 fold	CC(C)=CCC[C@](C)(O[C@@H]1O[C@H](CO[C@@H]2OC[C@H](O)[C@H](O)[C@H]2O)[C@@H](O)[C@H](O)[C@H]1O)[C@H]1CC[C@]2(C)[C@@H]1[C@H](O)C[C@@H]1[C@@]3(C)CC[C@H](O[C@@H]4O[C@H](CO)[C@@H](O)[C@H](O)[C@H]4O[C@@H]4O[C@H](CO)[C@@H](O)[C@H](O)[C@H]4O)C(C)(C)[C@@H]3CC[C@]12C [Rb2, ginsenoside Rb2]	AUCINF_obs [2, 10]: 10551 ± 1728 ng·h/mL; AUCINF_obs [2, 11]: 23198 ± 5566 ng·h/mL
–	–	–	–	–	–	–	–	–	–	–	–	–	–	–	–	–	–	–	CC(C)=CCC[C@](C)(O[C@@H]1O[C@H](CO[C@@H]2O[C@@H](CO)[C@H](O)[C@H]2O)[C@@H](O)[C@H](O)[C@H]1O)[C@H]1CC[C@]2(C)[C@@H]1[C@H](O)C[C@@H]1[C@@]3(C)CC[C@H](O[C@@H]4O[C@H](CO)[C@@H](O)[C@H](O)[C@H]4O[C@@H]4O[C@H](CO)[C@@H](O)[C@H](O)[C@H]4O)C(C)(C)[C@@H]3CC[C@]12C [Rc, ginsenoside Rc]	efflux ratio at 2 h, 100 µg/mL ([1]; Caco-2, pH 7.4): 4.36; Tmax [2, 12]: 9.00 ± 2.00 h; t1/2 [2, 12]: 16.90 ± 2.14 h; Tmax ([2]; female, Sprague-Dawley, rat, in vivo, po, Tmax): 9.5 ± 3 h; half-life ([2]; female, Sprague-Dawley, rat, in vivo, po, t1/2): 17.3 ± 4.54 h
significantly enhanced	4.47	75.4 ± 42.7 h	5350 ± 1400 ng·h/mL	237 ± 79 ng/mL	7410 ± 2180 ng·h/mL	21.6 ± 49 h	7.5 ± 1 h	7960 ± 2000 ng·h/mL	227 ± 57.8 ng/mL	9040 ± 2200 ng·h/mL	25.1 ± 7.45 h	7.5 ± 1 h	21.8 ± 6.78 h	0.014 ± 0.003 L/h	0.011 ± 0.003 L/h	concentration dependently increase	not dramatically changed	1.86 fold	CC(C)=CCC[C@](C)(O[C@@H]1O[C@H](CO)[C@@H](O)[C@H](O)[C@H]1O)[C@H]1CC[C@]2(C)[C@@H]1[C@H](O)C[C@@H]1[C@@]3(C)CC[C@H](O[C@@H]4O[C@H](CO)[C@@H](O)[C@H](O)[C@H]4O[C@@H]4O[C@H](CO)[C@@H](O)[C@H](O)[C@H]4O)C(C)(C)[C@@H]3CC[C@]12C [Rd, ginsenoside Rd]	–
